Patent publication US20220331298A1, “TREATMENT OF FRAGILE X SYNDROME WITH IBUDILAST IN COMBINATION WITH METFORMIN, CANNBIDIOL, SERTRALINE OR QUERCETIN” (priority 2019, published 2022)

Assays:
Assay type in all cases: in vivo
Fmr1 KO2 mice [1] = assay: Behavioral testing (all behavioural tests together)
Source text: (§1) Fmr1 knockout 2 (Fmr1 KO2) mice were generated by deletion of the promoter and first exon of Fmr1. The Fmr1 KO2 it is both, protein and mRNA null. In this study we used Fmr1 KO2 and wild-type (WT) littermates generated on a C57BL/6J background and repeatedly backcrossed onto a C57BL/6J background for more than eight generations.
(§2) There were five treatment groups per compound in the study with 10 male mice used per treatment group (all at 8 weeks of age): Group 1: wild-type littermate mice treated with vehicle (WT-Veh), Group 2: Fmr1 KO2 mice treated with vehicle (KO-Veh), Group 3: Fmr1 KO2 mice treated with ibudilast (KO-ibudilast); Group 4: Fmr1 KO2 mice treated with compound A (KO-[compound A]); Group 5: Fmr1 KO2 mice treated with ibudilast and compound A (KO-ibu/[compound A].
For experiments, all mice were tested once in the same apparatus. Prior to testing, mice were placed in the apparatus for some minutes before the experiment. The apparatus was cleaned with moist and dry tissues before testing each mouse. The aim was to create a low but constant background mouse odor for all experimental subjects. Testers were blind to the genotype and treatment during all testing and data analysis. We assessed weight loss, fur loss, walking, eyes open, eye discharges and general behavior.
(§3) Data were analyzed by one-way ANOVA with a Dunnett's multiple comparison post hoc test in which WT Vehicle group was used as reference and compared with all the other groups

Fmr1 KO2 mice [2] = assay: Nesting
Source text: (§4) The Fmr1 KO2 it is both, protein and mRNA null. In this study we used Fmr1 KO2 and wild-type (WT) littermates generated on a C57BL/6J background and repeatedly backcrossed onto a C57BL/6J background for more than eight generations. There were five treatment groups per compound in the study with 10 male mice used per treatment group (all at 8 weeks of age): Group 1: wild-type littermate mice treated with vehicle (WT-Veh), Group 2: Fmr1 KO2 mice treated with vehicle (KO-Veh), Group 3: Fmr1 KO2 mice treated with ibudilast (KO-ibudilast); Group 4: Fmr1 KO2 mice treated with compound A (KO-[compound A]); Group 5: Fmr1 KO2 mice treated with ibudilast and compound A (KO-ibu/[compound A]. For experiments, all mice were tested once in the same apparatus. Prior to testing, mice were placed in the apparatus for some minutes before the experiment. The apparatus was cleaned with moist and dry tissues before testing each mouse. The aim was to create a low but constant background mouse odor for all experimental subjects. Testers were blind to the genotype and treatment during all testing and data analysis. We assessed weight loss, fur loss, walking, eyes open, eye discharges and general behavior. […] Mice were placed individually into the nesting cages 1 hr. before the dark phase, and the results were assessed the next morning. Nest building was scored on a 5 point scale. […]

Fmr1 KO2 mice [3] = assay: Fear conditioning
Source text: as §4, with “The dependent measure used in contextual fear conditioning” for “Mice were placed individually into the nesting cages 1 hr. before the dark phase, and the results were assessed the next morning. Nest building”, “was” for “was scored on”, “freezing response following a pairing of an unconditioned stimulus (foot shock), with a conditioned stimulus, a particular context.” for “5 point scale.”

Fmr1 KO2 mice [4] = assay: Open field (hyperactivity)
Source text: as §1, §2
(§5) For experiments, all mice were tested once in the same apparatus. […] We assessed weight loss, fur loss, walking, eyes open, eye discharges and general behavior.
The open-field apparatus was used to test hyperactivity. […] The number of squares entered by the whole body (locomotor activity) was counted. The movement of the mouse around the field was recorded with a video tracking device for 3 min (version NT4.0, Viewpoint).
as §3

Fmr1 KO2 mice [5] = assay: Social interaction (three-chambered sociability task)
Source text: as §1, §2, §5
In the three-chambered sociability task, a subject mouse was evaluated for its exploration of a novel social stimulus (novel mouse). […] The time spent exploring the novel mice was scored as exploration ratio.
as §3

Structure (SMILES): C=C(C)[C@@H]1CCC(C)=C[C@H]1c1c(O)cc(CCCCC)cc1O [cannabidiol]
- effect of the amount given alone in the behavioural tests (Fmr1 KO2 mice [1]; cannabidiol alone 5 mg/kg, FIG. 5): ineffective

Structure (SMILES): CC(C)C(=O)c1c(C(C)C)nn2ccccc12 [ibudilast, 2-methyl-1-(2-propan-2-ylpyrazolo[1,5-a]pyridin-3-yl)propan-1-one]
- nesting rescue (Fmr1 KO2 mice [2]; ibudilast 3 mg/kg, FIG. 1): inactive
- nesting rescue (Fmr1 KO2 mice [2]; ibudilast 12 mg/kg, FIG. 2): fully rescued
- fear conditioning rescue (Fmr1 KO2 mice [3]; ibudilast 3 mg/kg, FIG. 1): partially rescued
- fear conditioning rescue (Fmr1 KO2 mice [3]; ibudilast 12 mg/kg, FIG. 2): fully rescued
- effect of the amount given alone in the behavioural tests (Fmr1 KO2 mice [1]; ibudilast alone 3 mg/kg): ineffective
- open field (hyperactivity) rescue (Fmr1 KO2 mice [4]; ibudilast 3 mg/kg, FIG. 1): inactive
- open field (hyperactivity) rescue (Fmr1 KO2 mice [4]; ibudilast 12 mg/kg, FIG. 2): fully rescued
- sociability rescue (Fmr1 KO2 mice [5]; ibudilast 3 mg/kg, FIG. 1): inactive
- sociability rescue (Fmr1 KO2 mice [5]; ibudilast 12 mg/kg, FIG. 2): fully rescued

Structure (SMILES): CN(C)C(=N)N=C(N)N [metformin]
- effect of the amount given alone in the behavioural tests (Fmr1 KO2 mice [1]; metformin alone 25 mg/kg, FIG. 4): ineffective

Structure (SMILES): O=c1c(O)c(-c2ccc(O)c(O)c2)oc2cc(O)cc(O)c12 [quercetin]
- effect of the amount given alone in the behavioural tests (Fmr1 KO2 mice [1]; quercetin alone 5 mg/kg, FIG. 6): ineffective

Structure (SMILES): CN[C@H]1CC[C@@H](c2ccc(Cl)c(Cl)c2)c2ccccc21 [sertraline]
- effect of the amount given alone in the behavioural tests (Fmr1 KO2 mice [1]; sertraline alone 1 mg/kg, FIG. 3): ineffective
